# Tests used:
# [1] = DVS analysis (percentage change in mass as function of relative humidity change); format: physicochemical; conditions: for sorption and desorption of water (reversibility): methanesulfonate
# From the text: DVS analysis, shown in FIG. 11, reports the percentage change in mass as of the relative humidity change.
# The DVS analysis, shown in FIG. 22, reports the percentage change in mass as function of the relative humidity change.
# [2] = XRPD of the sample recovered at the end of DVS analysis; format: physicochemical; conditions: methanesulfonate
# Experimental: The X-ray powder diffractogram (XRPD) has been obtained using the instrument X′Pert PRO PANalytical with single scan, using Kα1 radiation. The diffractogram is measured in reflection mode in the range 3-40° 2θ.
Compound,sorption and desorption of water (reversibility) ([1]; DVS analysis),diffractogram / crystal structure after DVS [2],"weight loss of the sample between the start and the end of analysis ([1]; DVS analysis, compatible with the loss of 1 mol of DMSO) [%]","mass increased percentage ([1]; DVS, between 40% and 80% RH of the absorption cycle) [%]",hygroscopicity classification ([1]; from DVS mass increase between 40% and 80% RH)
"COc1cc2nccc(Oc3ccc(NC(=O)NC4CC4)c(Cl)c3)c2cc1C(N)=O [ACA-1 HT DRY, 4-[3-Chloro-4-(N′-cyclopropylureido)phenoxy]-7-methoxyquinoline-6-carboxamide methanesulfonate]",not very reversible,quite amorphous but its crystal structure did not change,–,–,–
"COc1cc2nccc(Oc3ccc(NC(=O)NC4CC4)c(Cl)c3)c2cc1C(N)=O [DMSO-2, 4-[3-Chloro-4-(N′-cyclopropylureido)phenoxy]-7-methoxyquinoline-6-carboxamide methanesulfonate]",not reversible,–,12.34,–,–
"COc1cc2nccc(Oc3ccc(NC(=O)NC4CC4)c(Cl)c3)c2cc1C(N)=O [H2O-1, 4-[3-Chloro-4-(N′-cyclopropylureido)phenoxy]-7-methoxyquinoline-6-carboxamide methanesulfonate]",reversible,did not show any important modification,–,10.9,hygroscopic

# Source: patent publication US10836727B2, “Crystal forms of lenvatinib” (Indena S.P.A., priority 2016, dated 2020)
